# Test results taken from patent US10617118B2, “Low foam surfactant composition and methods of making the same” (Momentive Performance Materials Inc., priority 2015, dated 2020).
# How the values were obtained:
# [1] = Spreading: spread diameter of 10 μL drop on polystyrene Petri-dish; type: physicochemical; conditions: Table 11, after 30 seconds
# Method: Spreading was determined using between 0.1% and 0.4% (actives) surfactant. Solutions were prepared in Milli-Pore water (deionized) where a 10 μL drop was placed on a polystyrene surface (Petri-dish) and the spread diameter, in mm is determined after 30 seconds.
# [2] = system: Velvetleaf (Abutilion theophrasti); assay: Effect of adjuvant on glyphosate-IPA efficacy on velvetleaf (spray application); type: in vivo; conditions: 1.0 wt % Gly-IPA, adjuvant 0.1 wt %, 100 L/ha, simulated rain 2 hours after treatment, visual scale of 0-100%
# Method: Velvetleaf plants were grown from seed indoor, under full sunlight intensity lamps, in individual pots, and then thinned to one plant per pot. Plants were fertilized as necessary (NPK 20-20-20). Glyphosate spray applications were applied when the plants reached the 3-4 true leaf stage.
# Velvetleaf was treated with 1.0 wt % Gly-IPA, with and without adjuvant, at a spray volume equivalent to 100 L/ha. When adjuvant was used, it was included in the spray at 0.1 wt %. Applications were made using a track sprayer with a TeeJet 8002 nozzle. Simulated rain (2.5 cm) was applied 2 hours after treatment. Glyphosate efficacy was determined 7 and 14 days after treatment (DAT). using a visual scale of 0-100%, where 0 indicates no effect and 100 indicates total weed control.
Compound,Spread Diameter (mm) 0.2 Wt % [1] [mm],"Glyphosate-IPA efficacy on velvetleaf, 7 DAT ([2]; 7 DAT) [%]","Glyphosate-IPA efficacy on velvetleaf, 14 DAT ([2]; 14 DAT) [%]"
Triton X-100,7,–,–
"CC(C)N.O=C(O)CNCP(=O)(O)O [None, glyphosate-isopropylamine]",–,33,37
